Results published in ChEMBL document CHEMBL1165867, “Synthesis, structure and structure-activity relationship analysis of caffeic acid amides as potential antimicrobials” (2010).
Converted amounts (≈) assume the structure as drawn.

Assays:
Test in all cases: microbe, parasite or virus in culture
Type in all cases: functional
Staphylococcus aureus = conditions: ATCC 6538, 24 h
Description: Antibacterial activity against Staphylococcus aureus ATCC 6538 after 24 hrs by MTT assay

Pseudomonas fluorescens = conditions: ATCC 13525, 24 h
Description: Antibacterial activity against Pseudomonas fluorescens ATCC 13525 after 24 hrs by MTT assay

Candida albicans = conditions: ATCC 10231, 48 h
Description: Antifungal activity against Candida albicans ATCC 10231 after 48 hrs by MTT assay

Bacillus subtilis = conditions: ATCC 6633, 24 h
Description: Antibacterial activity against Bacillus subtilis ATCC 6633 after 24 hrs by MTT assay

Aspergillus niger = conditions: ATCC 16404, 48 h
Description: Antifungal activity against Aspergillus niger ATCC 16404 after 48 hrs by MTT assay

Trichophyton rubrum = conditions: ATCC 10218, 48 h
Description: Antifungal activity against Trichophyton rubrum ATCC 10218 after 48 hrs by MTT assay

Escherichia coli = conditions: ATCC 35218, 24 h
Description: Antibacterial activity against Escherichia coli ATCC 35218 after 24 hrs by MTT assay

Row | SMILES | MIC (Staphylococcus aureus) [µg/mL] | MIC (Pseudomonas fluorescens) [µg/mL] | MIC (Candida albicans) [µg/mL] | MIC (Bacillus subtilis) [µg/mL] | MIC (Aspergillus niger) [µg/mL] | MIC (Trichophyton rubrum) [µg/mL] | MIC (Escherichia coli) [µg/mL]
1 | O=C(/C=C/c1ccc(O)c(O)c1)Nc1ccccc1Br | > 50 | 42.2 (≈ 126 µM) | 27.5 (≈ 82.3 µM) | 49.5 (≈ 148 µM) |  |  | 
2 | COc1cccc(NC(=O)/C=C/c2ccc(O)c(O)c2)c1 | > 50 | > 50 | 44.7 (≈ 157 µM) | 50 (≈ 175 µM) |  |  | 
3 | O=C(O)/C=C/c1ccc(O)c(O)c1 [CAFFEIC ACID] | > 50 | > 50 | > 50 | > 50 |  |  | 
4 | O=C(/C=C/c1ccc(O)c(O)c1)Nc1ccc(F)cc1 | > 50 | > 50 | > 50 | 7.95 (≈ 29.1 µM) | > 50 | > 50 | > 50
5 | O=C(/C=C/c1ccc(O)c(O)c1)Nc1ccccc1Cl | > 50 | 41.2 (≈ 142 µM) | 42.8 (≈ 148 µM) | 45.8 (≈ 158 µM) |  |  | 
6 | O=C(/C=C/c1ccc(O)c(O)c1)Nc1ccccc1F | > 50 | > 50 | 33.3 (≈ 122 µM) | 50 (≈ 183 µM) |  |  | 
7 | CN(C(=O)/C=C/c1ccc(O)c(O)c1)c1ccccc1 | > 50 | > 50 | > 50 | > 50 |  |  | 
8 | CCN(CC)C(=O)/C=C/c1ccc(O)c(O)c1 | > 50 | > 50 | > 50 | > 50 |  |  | 
9 | O=C(/C=C/c1ccc(O)c(O)c1)N(c1ccccc1)c1ccccc1 | > 50 | > 50 | > 50 | > 50 |  |  | 
10 | O=C(/C=C/c1ccc(O)c(O)c1)Nc1cccc(Br)c1 | > 50 | > 50 | > 50 | 50 (≈ 150 µM) |  |  | 
11 | CCNC(=O)/C=C/c1ccc(O)c(O)c1 | > 50 | > 50 | > 50 | > 50 |  |  | 
12 | O=C(/C=C/c1ccc(O)c(O)c1)Nc1cccc([N+](=O)[O-])c1 | > 50 | > 50 | > 50 | > 50 |  |  | 
13 | Cc1ccccc1NC(=O)/C=C/c1ccc(O)c(O)c1 | > 50 | 42.5 (≈ 158 µM) | > 50 | 35 (≈ 130 µM) |  |  | 

Further lines, results first:

Row | MIC (Staphylococcus aureus) [µg/mL] | MIC (Pseudomonas fluorescens) [µg/mL] | MIC (Candida albicans) [µg/mL] | MIC (Bacillus subtilis) [µg/mL] | MIC (Aspergillus niger) [µg/mL] | MIC (Trichophyton rubrum) [µg/mL] | MIC (Escherichia coli) [µg/mL] | SMILES
14 | 49.2 (≈ 170 µM) | > 50 | > 50 | 50 (≈ 173 µM) |  |  |  | O=C(/C=C/c1ccc(O)c(O)c1)Nc1cccc(Cl)c1
15 | > 50 | > 50 | > 50 | > 50 |  |  |  | O=C(O)/C=C/c1ccc(O)cc1 [COUMARIC ACID]
16 | > 50 | > 50 | 49.4 (≈ 165 µM) | 15.5 (≈ 51.6 µM) | > 50 | > 50 | > 50 | O=C(/C=C/c1ccc(O)c(O)c1)Nc1ccc([N+](=O)[O-])cc1
17 | 46.8 (≈ 162 µM) | 50 (≈ 173 µM) | > 50 | 6.25 (≈ 21.6 µM) | > 50 | > 50 | > 50 | O=C(/C=C/c1ccc(O)c(O)c1)Nc1ccc(Cl)cc1
18 | 45.4 (≈ 237 µM) | > 50 | 50 (≈ 261 µM) | > 50 |  |  |  | CCNC(=O)/C=C/c1ccc(O)cc1
19 | > 50 | 42.2 (≈ 157 µM) | > 50 | 1.18 (≈ 4.38 µM) | > 50 | > 50 | > 50 | Cc1ccc(NC(=O)/C=C/c2ccc(O)c(O)c2)cc1
20 | > 50 | > 50 | > 50 | 46.7 (≈ 171 µM) |  |  |  | O=C(/C=C/c1ccc(O)c(O)c1)Nc1cccc(F)c1
21 | > 50 | 50 (≈ 150 µM) | > 50 | 3.89 (≈ 11.6 µM) | > 50 | > 50 | > 50 | O=C(/C=C/c1ccc(O)c(O)c1)Nc1ccc(Br)cc1
22 | > 50 | > 50 | > 50 | > 50 |  |  |  | O=C(/C=C/c1ccc(O)c(O)c1)Nc1ccccc1[N+](=O)[O-]
23 | 45.6 (≈ 169 µM) | 38.8 (≈ 144 µM) | > 50 | 40.2 (≈ 149 µM) |  |  |  | Cc1cccc(NC(=O)/C=C/c2ccc(O)c(O)c2)c1
24 | 1.39 (≈ 4.16 µM) |  |  | 0.78 (≈ 2.33 µM) |  |  |  | CC1(C)S[C@@H]2[C@H](NC(=O)Cc3ccccc3)C(=O)N2[C@H]1C(=O)O [PENICILLIN G]
25 | 41.5 (≈ 163 µM) | > 50 | 50 (≈ 196 µM) | 28.4 (≈ 111 µM) |  |  |  | O=C(/C=C/c1ccc(O)c(O)c1)Nc1ccccc1
26 | 1.28 (≈ 2.64 µM) | 5.08 (≈ 10.5 µM) |  | 0.39 (≈ 0.805 µM) |  |  |  | NC[C@H]1O[C@H](O[C@H]2[C@H](O)[C@@H](O[C@H]3O[C@H](CO)[C@@H](O)[C@H](N)[C@H]3O)[C@H](N)C[C@@H]2N)[C@H](O)[C@@H](O)[C@@H]1O [KANAMYCIN]
27 | 50 (≈ 175 µM) | > 50 | 42.8 (≈ 150 µM) | 3.12 (≈ 10.9 µM) | > 50 | > 50 | > 50 | COc1ccc(NC(=O)/C=C/c2ccc(O)c(O)c2)cc1
28 | 47.4 (≈ 166 µM) | 13.2 (≈ 46.3 µM) | > 50 | 39.8 (≈ 140 µM) |  |  |  | COc1ccccc1NC(=O)/C=C/c1ccc(O)c(O)c1
